Read-outs that look alike come from different tables or passages of the source.

One series addresses T1, human CCR6 (Homo sapiens, UniProt P51684).
T1 construct: expressed in transfected cells; host or cells: HEK293
T1 sequence (P51684 1-374): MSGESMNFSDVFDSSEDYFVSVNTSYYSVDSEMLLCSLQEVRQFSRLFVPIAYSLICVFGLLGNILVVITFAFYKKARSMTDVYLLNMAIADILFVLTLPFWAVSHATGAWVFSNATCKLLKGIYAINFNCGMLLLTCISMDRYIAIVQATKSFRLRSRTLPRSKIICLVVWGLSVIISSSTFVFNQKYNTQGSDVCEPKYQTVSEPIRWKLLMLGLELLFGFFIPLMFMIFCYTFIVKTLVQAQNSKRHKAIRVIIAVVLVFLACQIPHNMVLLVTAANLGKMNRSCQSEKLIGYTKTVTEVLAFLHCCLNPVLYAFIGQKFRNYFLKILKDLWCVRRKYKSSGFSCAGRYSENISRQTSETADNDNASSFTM
In words: human CCR6 calcium flux activity (FLIPR, HEK293 cells stably expressing human CCR6, CCL20 stimulation). The format is cell-based. The settings on record: HEK293 cells stably expressing human CCR6, EC80 human MIP-3 alpha/CCL20; read-out: CCR6 inhibitory activity, IC50. How it is done:
The activity of the compounds was evaluated using HEK293 cells stably expressing human CCR6 via the FLIPR platform. A 384-well black cell culture plate (Greiner, 781946) was used, with a seeding density of 20,000 cells/well, and incubated overnight at 37°C in a 5% CO2 incubator. The culture medium in the cell plate wells was removed, and 20 µL of Fluo-4 Direct™ Calcium Assay Buffer (Invitrogen, F10471, Component C), 20 µL of 2× Fluo-4 Direct™ Calcium Assay Reagent (Invitrogen, F10471, Component A) working solution, and 10 µL of 6× test compound working solution were sequentially added to each well. The cell plate was incubated in a 37 °C, 5% CO2 incubator for 50 min, followed by a 10 min incubation at room temperature. Additionally, a 6×EC80 human MIP-3 alpha/CCL20 (MCE, HY-P7262) working solution was prepared. After the incubation was completed, 10 µL/well of the 6×EC80 human MIP-3 alpha/CCL20 working solution was transferred to the cell plate using a FLIPR instrument, and the fluorescence signal changes at an excitation wavelength of 494 nm and an emission wavelength of 516 nm were recorded over 90 seconds. The difference between the maximum fluorescence signal (RFUMax) and the minimum fluorescence signal (RFUMin) was used as the output signal. The compound inhibition rate and the log value of the compound concentration were calculated, and a four-parameter fitting analysis was performed using GraphPad Prism 8 software to obtain the IC50 value of the test compound.

The nature of series [1]: in vivo pharmacokinetic study in SD rats. The settings on record: rat; for bioavailability: 1 mg/kg PO vs 1 mg/kg IV, read-out: Oral bioavailability F (%); for AUC(0-t) / Cmax / half-life: 1 mg/kg. How it is done:
2.2.1 Rats: SD rats, SPF grade, 6 rats per compound, male, body weight range 180-200 g.
2.2.2 Housing conditions: The animals were housed in an SPF-grade animal facility with free access to food and water, three per cage, under a 12/12-hour light/dark cycle (7:00 am/7:00 pm), at a temperature of 23 ± 3°C.
2.2.3 Drug preparation: The compound was precisely weighed, mixed with the required volume of 1% Tween 80, vortexed for 2 min, and then sonicated for 5 min until no visible particles remained. The mixture was subsequently stirred on a magnetic stirrer for 20 min, and the middle layer of the drug solution was collected for administration. For the IV group, the compound was accurately weighed, dissolved in the required volume of 50% PEG400, sonicated for 10 min, and vortexed until clear before administration.
The rats were randomly divided into 2 groups based on body weight, with 3 rats per compound per group. Group 1 was administered a single oral gavage dose (fasted), and Group 2 was administered a single tail vein bolus injection. Blood collection time points: for the po group, blood was collected at 0.167 h, 0.5 h, 1 h, 2 h, 3 h, 4 h, 6 h, and 8 h; for the iv group, blood was collected at 0.033 h, 0.167 h, 0.5 h, 1 h, 2 h, 4 h, 6 h, and 8 h.
After administration to the rats, blood was collected from the orbital venous plexus according to the sampling time points. Approximately 0.2-0.3 mL of blood was collected at each time point into anticoagulant EP tubes (containing 4 µL of EDTA-K2, 375 mg/mL, dried at 50°C). The tubes were slowly inverted up and down three times and stored in an ice box (for no more than 30 minutes). Centrifugation was performed at 4°C at 3000 × g for 10 minutes, and the supernatant was transferred to labeled EP tubes for bioanalytical testing. If testing could not be performed on the same day, the samples were stored at -80°C until analysis (care was taken to avoid multiple freeze/thaw cycles).
The data were analyzed using WinNonlin via a non-compartmental model to obtain PK parameters (Cmax, AUC0-last, AUCinf, T1/2, etc., selected based on different routes of administration). For specific data, please refer to Table 2. Table 2. PK experimental results of compounds in SD rats

On to `CN(C)C(=O)c1nccc(Nc2c(N[C@@H](C#CC3CCC3)[C@@]3(C)CC(F)(F)CO3)c(=O)c2=O)c1O` (single isomer, unassigned) [110B], for which the IC50 (usually the midpoint of a concentration-inhibition curve) on human CCR6 stood at 53.6 nM.
As to `Cc1cccnc1C(Nc1c(Nc2ccnc(C(=O)N(C)C)c2O)c(=O)c1=O)C1(C)CCC(F)(F)C1` (single isomer, unassigned) [125B], the bioavailability in series [1] (in vivo) was 136%. In series [1] (in vivo, IV), the AUC(0-t) (as a rule, the area under the concentration-time curve up to a stated or last time point) is 1500 ng·h/mL and the Cmax (as a rule, the maximum level reached in the sampled fluid or tissue) was 3050 ng/mL. Besides, in series [1] (in vivo, PO), the AUC(0-t) was 2040 ng·h/mL, the Cmax came to 822 ng/mL and the half-life (commonly the time in which the quantity being followed falls by half) was 1.37 h.
For the compound `Cc1cc(F)cnc1[C@H](Nc1c(Nc2ccnc(C(=O)N(C)C)c2O)c(=O)c1=O)[C@@]1(C)CC(F)(F)CO1` [093B, 4-((2-(((S)-((R)-4,4-difluoro-2-methyltetrahydrofuran-2-yl)(5-fluoro-3-methylpyridin-2-yl)methyl)amino)-3,4-dioxocyclobut-1-en-1-yl)amino)-3-hydroxy-N,N-dimethylpicolinamide], in series [1] (male, plasma), the bioavailability was found to be 51.6%. In series [1] (male, plasma, IV), this compound gave an area under the curve AUC(0-t) of 716 ng·h/mL and a Cmax of 1890 ng/mL. Further, in series [1] (male, plasma, PO), the AUC(0-t) stood at 370 ng·h/mL, the Cmax came to 285 ng/mL and the half-life is 3.83 h.
Regarding `CN(C)C(=O)c1nccc(Nc2c(N[C@@H](c3ncccc3F)C3(C)CCCC3)c(=O)c2=O)c1O` [compound 001, (R)-4-((2-(((3-fluoropyridin-2-yl)(1-methylcyclopentyl)methyl)amino)-3,4-dioxocyclobut-1-en-1-yl)amino)-3-hydroxy-N,N-dimethylpicolinamide], on human CCR6, the IC50 was 2.4 nM.
Consider `CN(C)C(=O)c1nccc(Nc2c(N[C@@H](c3cnccn3)C3(C)CCCC3)c(=O)c2=O)c1O` [compound 006, (R)-3-hydroxy-N,N-dimethyl-4-((2-(((1-methylcyclopentyl)(pyrazin-2-yl)methyl)amino)-3,4-dioxocyclobut-1-en-1-yl)amino)picolinamide], for which the 50% inhibitory concentration (IC50) at human CCR6 turned out to be 74 nM.
For `CN(C)C(=O)c1nccc(Nc2c(N[C@@H](c3cccc(C(F)(F)F)n3)C3(C)CCCC3)c(=O)c2=O)c1O` [compound 008, (R)-3-hydroxy-N,N-dimethyl-4-((2-(((1-methylcyclopentyl)(6-(trifluoromethyl)pyridin-2-yl)methyl)amino)-3,4-dioxocyclobut-1-en-1-yl)amino)picolinamide], on human CCR6, the IC50 came out at 151 nM.
Same read-out and setting: the value for `CN(C)C(=O)c1nccc(Nc2c(N[C@@H](c3ncc(F)cc3Cl)C3(C)CCCC3)c(=O)c2=O)c1O` [compound 011, (R)-4-((2-(((3-chloro-5-fluoropyridin-2-yl)(1-methylcyclopentyl)methyl)amino)-3,4-dioxocyclobut-1-en-1-yl)amino)-3-hydroxy-N,N-dimethylpicolinamide] was 22.5 nM.
Consider `CN(C)C(=O)c1nccc(Nc2c(N[C@@H](c3cc(Cl)ccn3)C3(C)CCCC3)c(=O)c2=O)c1O` [compound 012, (R)-4-((2-(((4-chloropyridin-2-yl)(1-methylcyclopentyl)methyl)amino)-3,4-dioxocyclobut-1-en-1-yl)amino)-3-hydroxy-N,N-dimethylpicolinamide], for which the IC50 at human CCR6 came out at 9 nM.
On the same count and under the same terms, as for `CN(C)C(=O)c1nccc(Nc2c(N[C@@H](c3ncccc3C(F)F)C3(C)CCCC3)c(=O)c2=O)c1O` [compound 015, (R)-4-((2-(((3-(difluoromethyl)pyridin-2-yl)(1-methylcyclopentyl)methyl)amino)-3,4-dioxocyclobut-1-en-1-yl)amino)-3-hydroxy-N,N-dimethylpicolinamide], the figure is 161 nM; as for `CN(C)C(=O)c1nccc(Nc2c(N[C@@H](c3nccc(F)c3F)C3(C)CCCC3)c(=O)c2=O)c1O` [compound 021, (R)-4-((2-(((3,4-difluoropyridin-2-yl)(1-methylcyclopentyl)methyl)amino)-3,4-dioxocyclobut-1-en-1-yl)amino)-3-hydroxy-N,N-dimethylpicolinamide], 6.4 nM.

Values taken from patent publication EP4703354A1, “COMPOUND AS CCR6 ANTAGONIST, AND PHARMACEUTICAL COMPOSITION AND USE THEREOF” (Wuhan Createrna Science and Technology Co.,Ltd., priority 2023, dated 2024).
